According to EP4763228A1, “PENTACYCLIC ACTIVE COMPOUND AND CONJUGATE THEREOF AND USE THEREOF” (Keymed Biosciences (Chengdu) Co., Ltd., priority 2023, dated 2025):

Legend:
Experiment in all cases: In vitro proliferation inhibition of compounds of formula (GH), CCK8, 6 days
Type in all cases: cell-based, human
A549 tumor cells = tested on: A549 tumor cells
Method: (§1) The object of this experiment is to test the in vitro killing activity of the compounds of the formula (GH) of the present disclosure on A549 tumor cells (human lung cancer cells, Beijing Tongren Hospital), SK-BR-3 tumor cells (human breast cancer cells, Wuhan Punosai, Cat. No. CL-0211) and NCI-N87 tumor cells (human gastric cancer cells, Cell Resource Center, Institute of Basic Medical Sciences, Chinese Academy of Medical Sciences, Cat. No. 3111C0001CCC000481). The cells were treated with different concentrations of the compounds in vitro and cultured for 6 days, then the in vitro activity of the test compounds was evaluated based on IC50 values by measuring the number of viable cells using CCK8 (Cell Counting Kit-8, Cat. No. TS547) reagent.
(§2) Taking the test method of in vitro killing activity against A549 cells, SK-BR-3 cells and NCI-N87 cells as an example, the test was carried out as follows. […] After the cells were completely digested, 10 mL cell culture medium containing 10% FBS was added, the digested cells were eluted, centrifuged at 300 g for 5 min, and the supernatant was discarded. […]

NCI-N87 tumor cells = tested on: NCI-N87 tumor cells
Method: as §1, §2

SK-BR-3 tumor cells = tested on: SK-BR-3 tumor cells
Method: as §1, §2

[1] = conclusion in words, comparison with Reference 1 at the same dose

SMILES: O=C1OCc2c(cc3n(c2=O)Cc2c-3nc3cc4c(cc3c2CCCCO)OCO4)[C@@]1(O)CC1CC1 [Compound 3]
- IC50 (A549 tumor cells; Homo sapiens, 144 h, A549 cells, 6 days, CCK8, 2% FBS): 1.68 nM
- inhibitory effect on the proliferation of A549 cells in vitro (A549 tumor cells; [1]): significantly higher inhibitory effect
- IC50 (NCI-N87 tumor cells; Homo sapiens, 144 h, NCI-N87 cells, 6 days, CCK8, 2% FBS): 0.44 nM
- inhibitory effect on the proliferation of NCI-N87 cells in vitro (NCI-N87 tumor cells; [1]): significantly higher inhibitory effect
- IC50 (SK-BR-3 tumor cells; Homo sapiens, 144 h, SK-BR-3 cells, 6 days, CCK8, 2% FBS): 0.24 nM
- inhibitory effect on the proliferation of SK-BR-3 cells in vitro (SK-BR-3 tumor cells; [1]): significantly higher inhibitory effect
